# Measurements reported in patent publication US6967196B1, “Sulfonamide compounds and uses thereof” (Bristol-Myers Squibb Company, priority 1999, dated 2005).
# Read-outs that look alike come from different tables or passages of the source.
# Test system: amyloid β production in transfected H4 (human neuroglioma) cells stably expressing APP constructs
# Assay: In vitro cell-based assay of inhibitors of amyloid β production (ELISA)
# Conditions: amyloid β in medium by ELISA, read-out: ACTIVITY (IC50, inhibition of amyloid β production)
# Summary of the method: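 Aβ secreted into the medium was read by sandwich ELISA (monoclonal capture for the Aβ C-terminus, polyclonal detection for the N-terminus) and calibrated on a standard curve. Before this, APP-expressing H4 cells were exposed to compound for ~16 h at an initial 10-100 μM, with actives then retested in dose-response.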
# [1] = transfected H4 cells stably expressing APP, approx. 16 h incubation
# [2] = transfected H4 cells stably expressing APP, approximately 16 hours incubation
Substance,IC50 [1] [nM],IC50 [2] [nM],other results
"isobutyl 3-[2-(1-{[(4-chlorophenyl)sulfonyl]-2,5-difluoroanilino}ethyl)phenoxy]propyl(methyl)carbamate [Example 677]",100 to 500,,
"methyl 3-[2-((1R)-1-{[(4-chlorophenyl)sulfonyl]-2,5-difluoroanilino}ethyl)-5-fluorophenyl]propanoate [Example 1065]",,> 500,
"methyl (2S)-2-[[2-((1R)-1-{[(4-chlorophenyl)sulfonyl]-2,5-difluoroanilino}ethyl)benzyl](methyl)amino]propanoate [Example 779]",100 to 500,,
"methyl [[2-((1R)-1-{[(4-chlorophenyl)sulfonyl]-2,5-difluoroanilino}ethyl)benzyl]- [Example 798]",100 to 500,,
"methyl [{2-[2-(1-{[(4-chlorophenyl)sulfonyl]-2,5-difluoroanilino}ethyl)phenoxy]ethyl}(methyl)amino](oxo)acetate [Example 929]",,> 500,
"methyl(6R)-6-[(2,5-dichlorophenyl)-[(4-chlorophenyl)sulfonyl]-amino]-3-thioheptanoic [Example 1185]",,,"IC50 (transfected H4 cells stably expressing APP constructs, approximately 16 hours incubation): 25 to 50 nM"
tert-butyl 4-{3-[2-({[(4-chlorophenyl)sulfonyl]anilino}methyl)phenoxy]propyl}-1-piperazinecarboxylate hydrochloride [Example 1028],,> 500,
